Results reported in patent publication US10119122B2, “Differentiation and expansion of endothelial cells from pluripotent stem cells and the in vitro formation of vasculature like structures” (Academisch Ziekenhuis Leiden, priority 2013, dated 2018).

Experiments:
Assay type in all cases: cell-based, human
[1] = tested on: HHT1-iPSC-derived ECs co-cultured with control iPSC-derived pericytes; test: 2D endothelial-pericyte co-culture sprouting assay, HHT1 patient ECs; conditions: SB431542 added with TGFβ3 (1 ng/ml) or BMP9 (1 ng/ml); day 7; control and HHT1-iPSC ECs (FIG. 17)
Procedure: (§1) The endothelial capillary-like network formation assay was carried out as previously described but with major modifications (Evensen et al., 2013). These included using both ECs and pericytes derived from human iPSC lines. This is described in more detail elsewhere (Orlova et al., manuscript in preparation). ECs were labelled with the general cytoplasmic labeling dye (PKH-26). For the sprouting assay, 12,000 ECs derived from both control and diseased lines were plated with 50,000 control iPSC-derived pericytes/well on 0.1% gelatin coated 96-well plates in EGM-2 (Lonza, CC-3162). Next day and on the day 4 of the assay, medium was replaced with new EGM-2 media containing tested compounds as indicated in the figure legends. Endothelial-pericyte co-culture was terminated on day 7 of the assay each well immunofluorescently stained for quantification, as follows: co-cultures were fixed with the 4% paraformaldehyde (PFA), permeabilized with the 0.1% TX-100 and blocked with the normal goat serum (Dako). Endothelial sprouts were visualized with the mouse anti-CD31 (Dako, 1:200). In some experiment with the mouse blocking antibodies, rabbit anti-CD31 (Scbt, 1:200) was used instead. Pericytes were visualized with antibodies against SM22 (Sigma, 1:200). The endothelial network was imaged with the BD Pathway 855 system using the 4× or 10× objective and 2×2 (or 3×3) Montage mode. Total area covered by the endothelial sprouts was quantified with the protocol developed within cell image analysis software CellProfiller (Broad Institute). High magnification images were acquired with the SP5 confocal microscope, using 10× and 40× objectives.
It was hypothesized that this system might be useful for distinguishing […] versus paracrine effects of endoglin deficiency in HHT1-iPSCs-derived ECs. Therefore, ECs from HHT-iPSC lines in the co-culture assay combined with the pericytes derived from the control iPSCs were examined. Little difference was observed between ECs from HHT1 and control iPSCs in co-culture. ECs from the patient harboring the 1083delAA and IVS 5+2 (T>C) mutation similar endothelial sprout formation as the controls (FIGS. 11A and 11B).
(§2) Endothelial cell-pericyte co-culture was performed as described previously (Evensen et al., 2013) but using conditions optimized for iPSC-derived ECs and pericytes as described (Orlova et al., manuscript in preparation). In brief, 12,000 and 50,000 iPSC-derived ECs and pericytes were plated, respectively, in each well of a 96-well plate. Next day the co-cultures were refreshed with the specific treatment conditions indicated. The co-culture was fixed on day 7, and EC sprouts stained with anti-CD31 antibody (1:200, Dako) (as described in Orlova et al., manuscript in preparation). Pericytes were visualized with the anti-SM22 antibody (1:200, Abcam). The BD Pathway 855 system was used for automatic image acquisition, with the 4× objective and 2×2 (or in some cases 3×3) montage mode. CellProfiller (Broad Institute) custom pipeline was used for the image quantification.

[2] = tested on: control iPSC-derived ECs co-cultured with control iPSC-derived pericytes/mesenchymal cells; test: 2D endothelial-pericyte co-culture sprouting assay, control ECs; conditions: for sprout formation / number of endothelial sprouts: SB431542 (10 μM in FIG. 20 legend); for total area covered by endothelial sprouts: SB431542
Procedure: as §1
A two-dimensional co-culture system was first established in vitro consisting of control iPSC-derived ECs cultured with the control iPSC-derived mesenchymal cells (FIG. 10A). The protocol was optimized and adapted to the BD Pathway 855 imaging system, based on the protocol initially described for the co-culture of HUVECs and vascular SMCs (vSMCs) (Evensen et al., 2013). On day 7 of the co-culture, iPSC-derived EC had organized and formed spouts on the top mesenchymal cells, as evidenced by immunofluorescent staining with the EC-specific CD31 and SMC-specific SM22 markers (FIG. 10B).
as §2

[3] = tested on: iPSC-derived pericytes/mesenchymal cells; test: Contractile smooth muscle marker expression in iPSC-derived pericytes/mesenchymal cells; conditions: ALK5 inhibitor
Procedure: Our differentiation system facilitates simultaneous derivation and expansion of pericytes and ECs from iPSC lines. […] Thus, a renewable source of pericytes/SMCs was created for co-culture with ECs that would in principle be able to simulate endothelial-pericyte interaction in humans.
iPSC-derived pericytes/mesenchymal cells were derived from the CD31− fraction emerging during the endothelial differentiation protocol. CD31− cells were plated on gelatin coated plates in EGM-2 media (Lonza). After 4 days medium was replaced by DMEM+10% FBS supplemented with TGFβ3 (2 ng/ml, Peprotech) and PDGF-BB (4 ng/ml, Peprotech). iPSC-derived pericytes were routinely maintained on gelatin-coated plates in DMEM+10% FBS. Cells were characterized for the expression of pericyte and mesenchymal cell-specific markers by flow cytometry and immunofluorescent staining as describe above.
ECs and pericytes were cultured as described above on gelatin coated coverslips. Cells were fixed with 4% PFA, permeabilized and stained with the following antibodies as described (Orlova et al., Manuscript in preparation): anti-Ve-Cadherin (1:200, CellSignaling), anti-vWF (1:200, Dako), anti-CD31 (1:200, Dako), anti-SM22a (1:200, Abcam), anti-SMA (1:400, Sigma), anti-CNN1 (1:200, Sigma).

[4] = day 7, listed as ALK5 inhibitor

NC(=O)c1ccc(-c2nc(-c3ccc4c(c3)OCO4)c(-c3ccccn3)[nH]2)cc1 [SB431542, reference compound]
rescue of ligand-induced inhibition of sprout formation [1]: rescued the inhibitory effect of both TGFβ3 and BMP-9
SM22 fluorescence intensity in endothelial-pericyte co-culture ([2]; ALK5 inhibitor, day 7, confocal imaging and quantification): increase in SM22 fluorescence intensity
endothelial cell proliferation (Ki67+ ECs) ([2]; SB431542 10 μM, day 7 co-culture): Increased endothelial cell proliferation
sprout formation / number of endothelial sprouts ([2]; day 7): enhancement of sprout formation
sprout formation / number of endothelial sprouts [2, 4]: significant increase in number of endothelial sprouts
total area covered by endothelial sprouts ([2]; day 7): increase in the total area covered by endothelial sprouts
total area covered by endothelial sprouts [2, 4]: significant increase
SM22 expression in pericytes [3]: no effect on SM22 expression in pericytes
